From patent US7741354B2, “Inhibitors of glutaminyl cyclase” (Probiodrug AG, priority 2006, dated 2010) come the findings set out here.

Sequence of hQC (Q16769 29-361): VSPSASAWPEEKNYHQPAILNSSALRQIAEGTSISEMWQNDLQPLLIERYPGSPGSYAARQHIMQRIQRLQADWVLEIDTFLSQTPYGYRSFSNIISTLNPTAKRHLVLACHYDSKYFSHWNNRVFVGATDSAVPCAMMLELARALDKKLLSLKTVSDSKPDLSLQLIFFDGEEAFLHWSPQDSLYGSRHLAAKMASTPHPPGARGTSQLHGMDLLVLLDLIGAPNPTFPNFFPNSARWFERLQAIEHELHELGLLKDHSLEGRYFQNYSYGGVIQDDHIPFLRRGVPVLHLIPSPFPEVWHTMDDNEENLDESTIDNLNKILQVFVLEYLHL

The target in the first assay is hQC (Homo sapiens, UniProt Q16769). Briefly: Fluorometric (fluorescent) assay of hQC inhibition, IC50. The conditions noted are these: hQC inhibition; read-out: IC50. Type of assay: biochemical. The method, boiled down:
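Two coupled fluorometric formats at 30° C, pH 8.0 Tris/HCl with EDTA: H-Gln-βNA at 0.2 mM read at 320/410 nm, or H-Gln-AMC at varied levels read at 380/460 nm, each started by adding QC.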
In the case of `COc1ccc(C(Nc2ccc3[nH]cnc3c2)c2nnnn2CC(=O)N2CCc3ccccc3C2)cc1` (centres unmarked) [compound 209, 2-{5-[(1H-Benzoimidazol-5-ylamino)-(4-methoxy-phenyl)-methyl]-tetrazol-1-yl}-1-(3,4-dihydro-1H-isoquinolin-2-yl)-ethanone], the IC50 came to 4 µM.

As for `CCOC(=O)C1CCCCC1n1nnnc1C(Nc1ccc2[nH]cnc2c1)c1ccccc1OC` (centres unmarked) [compound 183], the IC50 was found to be 8.5 µM.

On to `C1=COC(C(Nc2ccc3nc[nH]c3c2)c2nnnn2CCc2cccs2)CC1` (centres unmarked) [compound 182, (1H-Benzoimidazol-5-yl)-{(3,4-dihydro-2H-pyran-2-yl)-[1-(2-thiophen-2-yl-ethyl)-1H-tetrazol-5-yl]-methyl}-amine], for which the IC50 is 5.8 µM.

Take `Brc1cc(Br)cc(C(Nc2ccc3[nH]cnc3c2)c2nnnn2CC2CCCO2)c1` (centres unmarked) [compound 170, (1H-Benzoimidazol-5-yl)-{(3,5-dibromo-phenyl)-[1-(tetrahydro-furan-2-ylmethyl)-1H-tetrazol-5-yl]-methyl}-amine]: the IC50 was determined as 4.9 µM.

`CCOC(=O)C1CCCCC1n1nnnc1C(Nc1ccc2[nH]cnc2c1)c1ccc(SC)cc1` (centres unmarked) [compound 150]: the IC50 turned out to be 4 µM.

In the case of `CC(CC(Nc1ccc2[nH]cnc2c1)c1nnnn1-c1ccc(Oc2ccccc2)cc1)c1ccccc1` (centres unmarked) [compound 204, (1H-Benzoimidazol-5-yl)-{1-[1-(4-phenoxy-phenyl)-1H-tetrazol-5-yl]-3-phenyl-butyl}-amine], the IC50 came to 6.7 µM.

Consider `Fc1ccc2c(C(Nc3ccc4[nH]cnc4c3)c3nnnn3CC3CCCO3)c[nH]c2c1` (centres unmarked) [compound 144, (1H-Benzoimidazol-5-yl)-{(6-fluoro-1H-indol-3-yl)-[1-(tetrahydro-furan-2-ylmethyl)-1H-tetrazol-5-yl]-methyl}-amine], for which the IC50 came out at 5.8 µM.

On to `Brc1cc(Br)cc(C(Nc2ccc3[nH]cnc3c2)c2nnnn2-c2ccc3c(c2)OCCO3)c1` (centres unmarked) [compound 179, (1H-Benzoimidazol-5-yl)-{(3,5-dibromo-phenyl)-[1-(2,3-dihydro-benzo[1,4]dioxin-6-yl)-1H-tetrazol-5-yl]-methyl}-amine], for which the half-inhibitory concentration (IC50) amounted to 4 µM.

For the compound `Brc1cc(Br)cc(C(Nc2ccc3[nH]cnc3c2)c2nnnn2CCc2cccs2)c1` (centres unmarked) [compound 177, (1H-Benzoimidazol-5-yl)-{(3,5-dibromo-phenyl)-[1-(2-thiophen-2-yl-ethyl)-1H-tetrazol-5-yl]-methyl}-amine], the IC50 was determined as 2.2 µM.

Consider `CCOC(=O)C1CCCCC1n1nnnc1C(Nc1ccc2[nH]cnc2c1)c1cccc(C(=O)OC)c1` (centres unmarked) [compound 195, 3-{(1H-Benzoimidazol-5-ylamino)-[1-(2-ethoxycarbonyl-cyclohexyl)-1H-tetrazol-5-yl]-methyl}-benzoic acid methyl ester], for which the IC50 is 5.8 µM.

`CCOC(=O)C1CCCCC1n1nnnc1C(Nc1ccc2[nH]cnc2c1)c1ccc2c(c1)OCO2` (centres unmarked) [compound 162]: the concentration for half-maximal inhibition (IC50) stood at 5.8 µM.

As to `CCOC(=O)C1CCCCC1n1nnnc1C(Nc1ccc2[nH]cnc2c1)c1csc2ccccc12` (centres unmarked) [compound 145], the IC50 stood at 1.3 µM.

Regarding `O=C1CCCN1CCCn1nnnc1C(Nc1ccc2[nH]cnc2c1)c1cc(Br)cc(Br)c1` (centres unmarked) [compound 176, 1-(3-{5-[(1H-Benzoimidazol-5-ylamino)-(3,5-dibromo-phenyl)-methyl]-tetrazol-1-yl}-propyl)-pyrrolidin-2-one], the half-inhibitory concentration (IC50) turned out to be 5.8 µM.

Regarding `c1csc(CCn2nnnc2C(Nc2ccc3[nH]cnc3c2)c2ccc3nsnc3c2)c1` (centres unmarked) [compound 181], the half-inhibitory concentration (IC50) worked out at 0.4 µM.

With `CCc1ccc(C(Nc2ccc3[nH]cnc3c2)c2nnnn2CC2CCCO2)s1` (centres unmarked) [compound 129, (1H-Benzoimidazol-5-yl)-{(5-ethyl-thiophen-2-yl)-[1-(tetrahydro-furan-2-ylmethyl)-1H-tetrazol-5-yl]-methyl}-amine], the half-inhibitory concentration (IC50) was 8.5 µM.

Consider `Brc1cc(Br)cc(C(Nc2ccc3[nH]cnc3c2)c2nnnn2-c2ccccc2OCc2ccccc2)c1` (centres unmarked) [compound 180, (1H-Benzoimidazol-5-yl)-[[1-(2-benzyloxy-phenyl)-1H-tetrazol-5-yl]-(3,5-dibromo-phenyl)-methyl]-amine], for which the IC50 worked out at 4.9 µM.

For the compound `CCc1ccc(C(Nc2ccc3[nH]cnc3c2)c2nnnn2C2CCCCC2)cc1` (centres unmarked) [compound 198, (1H-Benzoimidazol-5-yl)-[(1-cyclohexyl-1H-tetrazol-5-yl)-(4-ethyl-phenyl)-methyl]-amine], the half-maximal inhibitory concentration (IC50) was determined as 4.9 µM.

With `O=C(Cn1nnnc1C(Nc1ccc2[nH]cnc2c1)c1cc(Br)cc(Br)c1)NCCc1c[nH]c2ccccc12` (centres unmarked) [compound 187, 2-{5-[(1H-Benzoimidazol-5-ylamino)-(3,5-dibromo-phenyl)-methyl]-tetrazol-1-yl}-N-[2-(1H-indol-3-yl)-ethyl]-acetamide], the IC50 was determined as 1.3 µM.

The assay is the same for the next values; noted with them: purified compound from preparative synthesis; fluorescent assay; read-out: IC50 hQC.
On to `CC(C)(C)Cn1nnnc1C(NCCCn1ccnc1)c1ccc2cccc(O)c2n1` (centres unmarked) [Compound 64, 2-[[1-(2,2-Dimethyl-propyl)-1H-tetrazol-5-yl]-(3-imidazol-1-yl-propylamino)-methyl]-quinolin-8-ol], for which the concentration for half-maximal inhibition (IC50) turned out to be 1.03 µM.

The same assay, now with this note: read-out: IC50.
`CC(C)(C)Cn1nnnc1C(NCCCn1ccnc1)c1ccc2cccc(O)c2n1` (centres unmarked) [Compound 64, 2-[[1-(2,2-Dimethyl-propyl)-1H-tetrazol-5-yl]-(3-imidazol-1-yl-propylamino)-methyl]-quinolin-8-ol]: the IC50 amounted to 0.4 µM.

For the compound `CC1=CCCC[C@@H]1C(NCCCn1ccnc1)c1nnnn1C1CCCC1` (stereo partly drawn) [compound 27, [(1-Cyclopentyl-1H-tetrazol-5-yl)-((S)-2-methyl-cyclohex-2-enyl)-methyl]-(3-imidazol-1-yl-propyl)-amine], the IC50 came out at 6.7 µM.

Turning to `Cn1nnnc1C(NCCCn1ccnc1)c1ccc2cccc(O)c2n1` (centres unmarked) [compound 29, 2-[(3-imidazol-1-yl-propylamino)-(1-methyl-1H-tetrazol-5-yl)-methyl]-quinolin-8-ol], the IC50 came to 3.1 µM.

As for `Fc1ccc2c(C(Nc3ccc4[nH]cnc4c3)c3nnnn3C3CCCCC3)c[nH]c2c1` (centres unmarked) [compound 81, (1H-Benzoimidazol-5-yl)-[(1-cyclohexyl-1H-tetrazol-5-yl)-(6-fluoro-1H-indol-3-yl)-methyl]-amine], the 50% inhibitory concentration (IC50) is 3.1 µM.

For `Oc1cccc2ccc(C(NCCCn3ccnc3)c3nnnn3C3CCCC3)nc12` (centres unmarked) [compound 25, 2-[(1-Cyclopentyl-1H-tetrazol-5-yl)-(3-imidazol-1-yl-propylamino)-methyl]-quinolin-8-ol], the IC50 is 2.2 µM.

As to `COc1ccc(C(Nc2ccc3[nH]cnc3c2)c2nnnn2CC2CCCO2)cc1Br` (centres unmarked) [compound 109, (1H-Benzoimidazol-5-yl)-{(3-bromo-4-methoxy-phenyl)-[1-(tetrahydro-furan-2-ylmethyl)-1H-tetrazol-5-yl]-methyl}-amine], the IC50 came out at 1.3 µM.

In the case of `COC(=O)Cn1nnnc1C(NCCCn1ccnc1)c1ccc(OC)c(O)c1` (centres unmarked) [compound 58, {5-[(3-Hydroxy-4-methoxy-phenyl)-(3-imidazol-1-yl-propylamino)-methyl]-tetrazol-1-yl}-acetic methyl ester], the half-inhibitory concentration (IC50) was determined as 4 µM.

As to `c1ccc2ncc(C(Nc3ccc4[nH]cnc4c3)c3nnnn3CC3CCCO3)cc2c1` (centres unmarked) [compound 102, (1H-Benzoimidazol-5-yl)-{quinolin-3-yl-[1-(tetrahydro-furan-2-ylmethyl)-1H-tetrazol-5-yl]-methyl}-amine], the IC50 came to 2.2 µM.

`CSCCC(Nc1ccc2[nH]cnc2c1)c1nnnn1C(c1ccccc1)c1ccccc1` (centres unmarked) [compound 95, [1-(1-Benzhydryl-1H-tetrazol-5-yl)-3-methylsulfanyl-propyl]-(1H-benzoimidazol-5-yl)-amine]: the IC50 is 4.9 µM.

As for `Oc1cccc2ccc(C(NCCCn3ccnc3)c3nnnn3Cc3ccc(Cl)cc3)nc12` (centres unmarked) [compound 4, 2-[[1-(4-Chloro-benzyl)-1H-tetrazol-5-yl]-(3-imidazol-1-yl-propylamino)-methyl]-quinolin-8-ol], the IC50 is 4.9 µM.

Take `c1cn(CCCNC(c2ccc3[nH]ccc3c2)c2nnnn2C2CCCC2)cn1` (centres unmarked) [compound 26]: the IC50 came out at 3.1 µM.

With `COC(=O)c1cccc(C(Nc2ccc3[nH]cnc3c2)c2nnnn2Cc2ccc(Cl)cc2)c1` (centres unmarked) [compound 85, 3-{(1H-Benzoimidazol-5-ylamino)-[1-(4-chloro-benzyl)-1H-tetrazol-5-yl]-methyl}-benzoic acid methyl ester], the IC50 worked out at 1.3 µM.

In the case of `Cc1ccc2occ(C(Nc3ccc4[nH]cnc4c3)c3nnnn3CC3CCCO3)c(=O)c2c1` (centres unmarked) [compound 86, 3-{(1H-Benzoimidazol-5-ylamino)-[1-(tetrahydro-furan-2-ylmethyl)-1H-tetrazol-5-yl]-methyl}-6-methyl-chromen-4-one], the IC50 is 9.4 µM.

For the compound `CC(C)(C)Cn1nnnc1C(NCCCn1ccnc1)c1ccc2ccccc2n1` (centres unmarked) [compound 66, {[1-(2,2-Dimethyl-propyl)-1H-tetrazol-5-yl]-quinolin-2-yl-methyl}-(3-imidazol-1-yl-propyl)-amine], the IC50 was 3.1 µM.

As to `COC(=O)Cn1nnnc1C(NCCCn1ccnc1)c1ccc(Cl)c(Cl)c1` (centres unmarked) [compound 50, {5-[(3,4-Dichloro-phenyl)-(3-imidazol-1-yl-propylamino)-methyl]-tetrazol-1-yl}-acetic methyl ester], the IC50 was 4 µM.

In the case of `CC(CC(Nc1ccc2[nH]cnc2c1)c1nnnn1C(C)(C)C)c1ccccc1` (centres unmarked) [compound 106, (1H-Benzoimidazol-5-yl)-[1-(1-tert-butyl-1H-tetrazol-5-yl)-3-phenyl-butyl]-amine], the IC50 is 6.7 µM.

On to `CC(C)(C)OC(=O)Cn1nnnc1C(Nc1ccc2[nH]cnc2c1)c1ccc(Cl)c(F)c1` (centres unmarked) [compound 91, {5-[(1H-Benzoimidazol-5-ylamino)-(4-chloro-3-fluoro-phenyl)-methyl]-tetrazol-11-yl}-acetic acid tert-butyl ester], for which the IC50 is 4 µM.

`Clc1ccc(C(NCCCn2ccnc2)c2nnnn2C[C@@H]2CCCO2)cc1Cl` (some centres unmarked) [compound 10]: the IC50 was 4 µM.

As for `c1ccc2oc(C(NCCCn3ccnc3)c3nnnn3C[C@@H]3CCCO3)cc2c1` (stereo partly drawn) [compound 15, (Benzofuran-2-yl-{1-[(S)-1-(tetrahydro-furan-2-yl)methyl]-1H-tetrazol-5-yl}-methyl)-(3-imidazol-1-yl-propyl)-amine], the IC50 came out at 6.7 µM.
